Source: the SangsterLogP compilation

Conditions: pH 7.4

Row | logD | SMILES
1 | 1.78 | C[C@H]1O[C@@H](n2cnc3c(N)nc(OCC4CC45CC5)nc32)[C@H](O)[C@@H]1O (stereo partly drawn)
2 | 1.58 | N#Cc1cccnc1-c1ccc(C(=O)Nc2ccccc2N)cc1
3 | 1.9 | CC(C)(C#N)c1cnc(N2CCN(C(=O)[C@@H]3CCCC[C@H]3C(=O)NC3(C#N)CC3)CC2)s1
4 | 3.4 | CC(C)(C)OC(=O)N1CCN(c2cnc(OCc3ccc(S(C)(=O)=O)cc3)cn2)CC1
5 | 4.2 | N#CC1(NC(=O)[C@@H]2CCCC[C@H]2C(=O)N2CCc3[nH]c4ccc(C(F)(F)F)cc4c3C2)CC1
6 | 2.8 | CC(C)(C)OC(=O)N1CCN(c2ccc(OCc3ccc(S(C)(=O)=O)cc3)nn2)CC1
7 | 3.6 | CC(C)(C)OC(=O)N1CCN(c2ncc(OCc3ccncc3F)cn2)CC1
8 | 3.1 | COc1cc2ncnc(Nc3cccc(Cl)c3F)c2cc1OC1CCN(CC(N)=O)CC1
9 | 4.1 | CC(C)c1ccc2[nH]c3c(c2c1)CN(C(=O)[C@@H]1CCCC[C@H]1C(=O)NC1(C#N)CC1)CC3
10 | 3.13 | CS(=O)(=O)c1cccc(Nc2nccc(Nc3c(Cl)ccc4c3OCO4)n2)c1
11 | 3.18 | C[C@H]1O[C@@H](n2cnc3c(N)nc(OC4CCCC4)nc32)[C@H](O)[C@H]1Cl
12 | 2.66 | N#CC1(NC(=O)[C@@H]2CCCC[C@H]2C(=O)N2CCc3[nH]c4ccccc4c3C2)CC1
13 | 2.99 | CCCSc1c(C(=O)NC2CCCCC2)cnn1C
14 | 3.75 | N#CC1(NC(=O)[C@@H]2CCCC[C@H]2C(=O)N2CCc3[nH]c4c(C(F)(F)F)cccc4c3C2)CC1
15 | 2.19 | Cc1ncc(-c2nc(Nc3ccc(N4CCN(C(=O)CO)CC4)cc3)ncc2F)n1C(C)C
16 | 1.5 | CS(=O)(=O)c1ccc2c3c([nH]c2c1)CCN(C(=O)[C@@H]1CCCC[C@H]1C(=O)NC1(C#N)CC1)C3
17 | 3.7 | Cc1cc(COc2cnc(N3CCN(C(=O)OC(C)(C)C)CC3)nc2)ccn1
18 | 2.35 | C[C@@H]1CN(c2ccccc2)CCN1C(=O)[C@@H]1CCCC[C@H]1C(=O)NC1(C#N)CC1
19 | 1.7 | CS(=O)(=O)Cc1cc(N2CCOCC2)nc(-c2cccc3[nH]ccc23)n1
20 | 3.3 | CC(C)c1nc(N2CCN(c3ncc(OCc4ccncc4C#N)cn3)[C@H](C)C2)no1
21 | 3.03 | N#CC1(NC(=O)[C@@H]2CCCC[C@H]2C(=O)N2CCc3[nH]c4c(F)cccc4c3C2)CC1
22 | 3.5 | N#CC1(NC(=O)[C@@H]2CCCC[C@H]2C(=O)N2CCN(c3nc(-c4ccccc4)cs3)CC2)CC1
23 | 2.06 | CS(=O)(=O)Cc1cc(N2CCOCC2)nc(-c2ccc3[nH]ccc3c2)n1

Row | logD | SMILES
24 | 2.38 | C[C@H]1COCCN1c1cc(CS(C)(=O)=O)nc(-c2ccc3[nH]ccc3c2)n1
25 | 2.55 | COc1ccc(N(C(=O)c2ccccc2)C(C(=O)NC[C@@H](C)O)c2ccccc2F)c(OC)c1 (stereo partly drawn)
26 | 2.99 | N#CC1(NC(=O)[C@@H]2CCCC[C@H]2C(=O)N2CCc3[nH]c4cc(F)ccc4c3C2)CC1
27 | 1.42 | N#CC1(NC(=O)[C@@H]2CCCC[C@H]2C(=O)N2CCN(c3nc4c(s3)COCC4)CC2)CC1
28 | 3.49 | C[C@@H](Oc1ccc(S(C)(=O)=O)cc1C(=O)N1CCN(c2ncc(C(F)(F)F)cc2F)CC1)C(F)(F)F
29 | 1.6 | N#CC1(NC(=O)[C@@H]2CCCC[C@H]2C(=O)N2CCN(c3nc4ccncc4s3)CC2)CC1
30 | 3.1 | C[C@H](C#N)NC(=O)[C@@H]1CCCC[C@H]1C(=O)N1CCc2[nH]c3ccc(F)cc3c2C1
31 | 1.94 | CS(=O)(=O)Cc1cc(N2CCOCC2)nc(-c2ccccc2)n1
32 | 3.49 | COc1cc(N2CCN(C(=O)[C@@H]3CCCC[C@H]3C(=O)NC3(C#N)CC3)[C@H](C)C2)ccc1C1CC1
33 | 2.27 | CCCSc1ncccc1C(=O)NC1[C@@H]2CC3C[C@H]1CC(O)(C3)C2 (stereo partly drawn)
34 | 1.85 | COc1ccc(N2CCN(C(=O)[C@@H]3CCCC[C@H]3C(=O)NC3(C#N)CC3)[C@H](C)C2)cc1OC
35 | 2.36 | COc1ccc(N(C(=O)c2ccoc2Cl)C(C(=O)NC[C@@H](C)O)c2ccccc2F)c(OC)c1 (stereo partly drawn)
36 | 3.1 | CCOc1cccc2c3c([nH]c12)CCN(C(=O)[C@@H]1CCCC[C@H]1C(=O)NC1(C#N)CC1)C3
37 | 1.2 | Nc1ccccc1NC(=O)c1ccc(N2CCOCC2)cc1
38 | 1.13 | CCn1c(=O)c2c(O)cc(=O)oc2c2ccccc21
39 | 3.9 | CC(C)(C)OC(=O)N1CCN(c2ccc(OCc3ccc(S(C)(=O)=O)cc3)cc2)CC1
40 | 2.62 | CCNC(=O)c1cc2c(-n3ccc(C(F)(F)F)n3)c(-c3cncc(C#N)c3)cnc2[nH]1
41 | 1.03 | COc1cc(OC)c(S(=O)(=O)NCc2ccccc2N2CCC(CO)CC2)cc1NC(C)=O
42 | 3.4 | C[C@@H]1CN(c2ncc(F)cn2)CCN1c1ncc(OCc2ccncc2C#N)cn1
43 | 1.4 | N#CC1(NC(=O)[C@@H]2CCCC[C@H]2C(=O)N2CCN(c3nc4ncccc4s3)CC2)CC1
44 | 1.4 | COc1ccc(N2CCN(C(=O)[C@@H]3CCCC[C@H]3C(=O)NC3(C#N)CC3)CC2)cc1OC
45 | 1.65 | CCNC(=O)c1cc2c(-n3ccc(C(F)(F)F)n3)c(-c3cncc(-c4n[nH]c(=O)o4)c3)cnc2[nH]1
46 | 2.67 | Cc1noc2cc(N3CCN(C(=O)[C@@H]4CCCC[C@H]4C(=O)NC4(C#N)CC4)[C@H](C)C3)ccc12

Row | logD | SMILES
47 | 2.21 | CCNC(=O)c1cc2c(-n3ccc(C(F)(F)F)n3)c(-c3cncc(C(=O)NC)c3)cnc2[nH]1
48 | 1.6 | COc1ccc(N2CCN(C(=O)[C@@H]3CCCC[C@H]3C(=O)NCC#N)CC2)cc1
49 | 1.79 | N#CCNC(=O)[C@@H]1CCCC[C@H]1C(=O)N1CCN(c2ccc(C#N)cc2)CC1
50 | 0.96 | O=c1cc(O)c2c(=O)n(-c3ccccc3)c3ccccc3c2o1
51 | 1.34 | O=S(=O)(Cc1cc(N2CCOCC2)nc(-c2ccccn2)n1)c1ccccc1
52 | 3.01 | Cc1ncc(-c2nc(Nc3ccc(N4CCOCC4)cc3)ncc2F)n1C(C)C
53 | 3.8 | Cc1cnccc1COc1cnc(N2CCN(C(=O)OC(C)(C)C)CC2)nc1
54 | 1.52 | Cc1nc2nc(-c3cccnc3)[nH]n2c(=O)c1Cc1ccccc1
55 | 0.7 | COC1/C=C\OC2(C)Oc3c(C)c(O)c4c(c3C2=O)C(=O)C=C(NC(=O)/C(C)=C\C=C/C(C)C(O)C(C)C(O)C(C)C(OC(C)=O)C1C)C4=O (stereo not drawn)
56 | 2.4 | CS(=O)(=O)C1(c2cc(N3CCOCC3)nc(-c3cccc4[nH]ccc34)n2)CCOCC1
57 | 2.93 | CC(C)(C)OC(=O)N1CCN(c2ncc(OCc3ccc(S(C)(=O)=O)cc3)nn2)CC1
58 | 0.8 | CCCCN1Cc2c(nc3cc(-c4ccco4)[nH]n3c2=O)C1=O
59 | 1.3 | O=c1cc(-c2ccccc2)nc2cc[nH]n12
60 | 3.4 | CC(C)(C)OC(=O)N1C[C@@H]2CC[C@H]1CN2c1ncc(OCc2ccc(S(C)(=O)=O)cc2)cn1
61 | 0.85 | CS(=O)(=O)Cc1cc(N2CCOCC2)nc(-c2ccc(NS(C)(=O)=O)cc2)n1
62 | 2.2 | Cc1nc2nc(NC(=O)c3ccc(F)cc3)[nH]n2c(=O)c1Cc1ccccc1
63 | 2.91 | CCNC(=O)c1cc2c(-n3ccc(C(F)(F)F)n3)c(-c3cc(-c4n[nH]c(=O)o4)cnc3OC)cnc2[nH]1
64 | 1.3 | Cc1ccc(-c2cccc(-c3nn[nH]n3)c2)cc1
65 | 3.2 | N#CC1(NC(=O)[C@@H]2CCCC[C@H]2C(=O)N2CCc3[nH]c4cccc(F)c4c3C2)CC1
66 | 3.8 | COc1cnccc1COc1cnc(N2CCN(C(=O)OC(C)(C)C)CC2)nc1
67 | 2.82 | COc1cc(OC)c(S(=O)(=O)N2c3ccccc3CCC2C)cc1NC(=O)CSc1ccncc1 (stereo not drawn)
68 | 3.5 | C[C@@H]1CN(C(=O)OC(C)(C)C)CCN1c1ncc(OCC2CCN(S(C)(=O)=O)CC2)cn1
